How the values were obtained:
Format in all cases: in vivo, human
[1] = tested on: men suffering from moderate to severe LUTS secondary to BPH; experiment: same clinical study: safety / tolerability of once a day dosing; settings: dosed once a day, 5 mg then 20 mg
Protocol: (§1) The efficacy and safety of Compound (I) administered once a day for LUTS secondary to BPH in male humans was tested. In particular, the efficacy and safety of Compound (I) dosed once a day was assessed in men suffering from moderate to severe LUTS secondary to BPH in a randomized, double-blind, placebo-controlled, parallel-group, dose-escalation study. Patients were treated with placebo for four weeks (single blind) to evaluate treatment compliance and establish baseline International Prostate Symptom Score (IPSS) and uroflowmetry values. After stratification by baseline IPSS (13-19, moderate LUTS; 20-35, severe LUTS), geographic region, and prior α-blocker therapy, 281 men were randomly assigned to two groups: (1) Compound (I) (5 mg for 6 weeks followed by dose escalation to 20 mg for 6 weeks) or (2) placebo (12 weeks). The primary efficacy end point was change in IPSS at 6 and 12 weeks. Secondary efficacy endpoints included changes in IPSS Quality of Life (QoL) index, BPH Impact Index (BII), uroflowmetry values, and a Global Assessment Question (LUTS GAQ) (Has the treatment you have been taking since your last visit improved your urinary symptoms?). Responses to Compound (I) 5 mg (6 weeks) or Compound (I) 5 mg followed by 20 mg (5/20 mg; 12 weeks total) were compared with placebo using ANCOVA (IPSS, BII, uroflowmetry values) and logistic linear regression (LUTS GAQ) models.

[2] = tested on: men with LUTS/BPH who were sexually active and also had erectile dysfunction; experiment: same clinical study: erectile function (IIEF EF domain) in the subset with erectile dysfunction; settings: for increase in International Index of Erectile Function (IIEF) EF domain score: LS Means, p<0.001
Protocol: The efficacy and safety of Compound (I) administered once a day for LUTS secondary to BPH in male humans was tested. In particular, the efficacy and safety of Compound (I) dosed once a day was assessed in men suffering from moderate to severe LUTS secondary to BPH in a randomized, double-blind, placebo-controlled, parallel-group, dose-escalation study.
as §1, with “Patients” for “The efficacy and safety of Compound (I) administered once a day for LUTS secondary to BPH in male humans was tested. In particular, the efficacy and safety of Compound (I) dosed once a day was assessed in men suffering from moderate to severe LUTS secondary to BPH in a randomized, double-blind, placebo-controlled, parallel-group, dose-escalation study. Patients”
At 6 weeks (5 mg) and 12 weeks (5/20 mg) Compound (I) improved change from baseline scores for IPSS, IPSS QoL, BII, and LUTS GAQ compared with placebo. Peak flow rate (Qmax) changes were similar in placebo and Compound (I) treatment groups.

[3] = tested on: men suffering from moderate to severe LUTS secondary to BPH; experiment: randomized, double-blind, placebo-controlled, parallel-group, dose-escalation study, once a day dosing: efficacy in LUTS secondary to BPH
Protocol: as §1

[4] = at 6 weeks (5 mg) and 12 weeks (5/20 mg), once a day, men

## CN1CC(=O)N2[C@H](c3ccc4c(c3)OCO4)c3[nH]c4ccccc4c3C[C@@H]2C1=O [Compound (I), (6R,12aR)-2,3,6,7,12,12a-hexahydro-2-methyl-6-(3,4-methylenedioxyphenyl)pyrazino[2′,1′:6:1]pyrido[3,4-b]indole-1,4-dione]
[1]
  tolerability: well tolerated
[2]; 5 mg once a day, 6 weeks, vs. 0.6 placebo
  increase in International Index of Erectile Function (IIEF) EF domain score: 6.0
[2]; 5/20 mg once a day, 12 weeks total, vs. 1.4 placebo
  increase in International Index of Erectile Function (IIEF) EF domain score: 7.7
[2]; dosed once a day, summary
  erectile function in men with both LUTS and MED: improved erectile function
[3]; [4]
  LUTS GAQ compared with placebo: improved
  change from baseline score for BII compared with placebo: improved
  change from baseline score for IPSS QoL compared with placebo: improved
  change from baseline score for IPSS compared with placebo: improved
[3]; dosed once a day, summary
  efficacy in the treatment of LUTS secondary to BPH: statistically significant and clinically meaningful efficacy
[3]; uroflowmetry, placebo and Compound (I) treatment groups
  Peak flow rate (Qmax) changes versus placebo: similar
